# Experimental data from patent US5149702A, “Cycloheptenopyridine derivatives, process for preparation thereof and antiulcer agents containing the same” (Toa Eiyo Ltd., priority 1990, dated 1992).
# Where a name gives a salt, the structure may show the parent alone.
# Columns and labels:
# gastric acid secretion = assay: Inhibitory Effect on Gastric Acid Secretion in Ghosh-Schild Rats; format: in vivo, rat (male Wistar-KV); conditions: 180 minutes after administration
# Procedure: (a) Inhibitory Effect on Gastric Acid Secretion in Ghosh-Schild Rats Each of male Wistar-KV rats was fasted for 24 hours, and a trachea cannula was set up under urethane anesthesia. The abdomen was incised, a double cannula was set up at the forestomach, and then the abdomen was closed. The gastric acid secretion was stimulated by intravenous infusion of […]. Physiological saline was perfused into the stomach through the double cannula at a rate of 1 ml/min., and the effluent was collected every 10 minutes. The acidity of the effluent was measured, using an automatic titrator, by titrating the effluent with 1/100N sodium hydroxide to pH 7. When the acid secretion had reached a stable plateau, the test drug was intravenously administered, and the gastric acid secretion was measured 3 hours after the test drug administration. The antisecretory effect was expressed as percentages of the secretory amount before administration of the test compound. Inhibition percentages at 180 minutes after the administrations are shown.
# [1] = test system: gastric lesion induced by ethanol; assay: Inhibitory Effect on Formation of Gastric Lesion Induced by Ethanol; format: in vivo, rat (male Wistar); conditions: P.O., 30 minutes before 1 ml of 99.5% ethanol orally, lesions 1 hour after ethanol
# Procedure: (b) Inhibitory Effect on Formation of Gastric Lesion Induced by Ethanol
# Male Wistar rats weighing 170 to 270 g were used. Each of the rats was placed in separate cages to deprive of food but allowed free access to water for 4 hours. Test drugs or the control drug were orally administered respectively in amounts of 3, 10 and 30 mg/kg, and 30 minutes thereafter 1 ml of 99.5% ethanol were orally administered respectively. One hour after the ethanol administration the rats were sacrificed by cervical vertebrae dislocation, and the stomachs were removed with 8 ml of 1% formalin and put into 1% formalin for 30 minutes to fix the gastric wall. After the fixing, each stomach was opened along the greater curvature, and then after the mucosal surface was washed with tap water, the total length lesions generated at the glandub portion was determined as an ulcer index.
# The antiulcer effect by the test drug was expressed by the ED50 value (the dose of the test compound to inhibit the ulcer by 50% to the ulcer index of the non-treated group). Only the solvent was administered to the non-treated group.
SMILES,"Inhibiting action of gastric acid secretion (rat i.v.), 1 mg/kg (gastric acid secretion) [%]","Inhibiting action of gastric acid secretion (rat i.v.), 3 mg/kg (gastric acid secretion) [%]","Inhibiting action of gastric acid secretion (rat i.v.), 1 mg/kg (gastric acid secretion; sodium salt) [%]","ED50 value (dose of the test compound to inhibit the ulcer by 50% to the ulcer index of the non-treated group) ([1]; rat, sodium salt) [mg/kg]","ED50 ([1]; Rattus norvegicus, po, read-out: ED50 value (dose of the test compound to inhibit the ulcer by 50% to the ulcer index of the non-treated group)) [mg/kg]"
"COc1ccc2[nH]c([S+]([O-])C3CCCCc4c(OC)ccnc43)nc2c1 (centres unmarked) [Example 63, 9-(5-Methoxybenzimidazole-2-yl)sulfinyl-4-methoxy-2,3-cycloheptenopyridine]",45.7,73.8,,,
"COc1ccnc2c1CCCCC2[S+]([O-])c1nc2ccccc2[nH]1 (centres unmarked) [Example 68, 9-(Benzimidazole-2-yl)sulfinyl-4-methoxy-2,3-cycloheptenopyridine sodium salt]",,,54.9,10.9,
"Cc1ccc2[nH]c([S+]([O-])C3CCCCc4cccnc43)nc2c1 (centres unmarked) [Example 75, 9-(5-Methylbenzimidazole-2-yl)sulfinyl-2,3-cycloheptenopyridine]",,42.1,,,
"COc1ccnc2c1CCCCC2[S+]([O-])c1nc2ccccc2[nH]1 (centres unmarked) [Example 77, 9-(Benzimidazole-2-yl)sulfinyl-4-methoxy-2,3-cycloheptenopyridine]",44.7,74.7,,,13
"COc1ccnc2c1CCCCC2[S+]([O-])c1nc2cc(F)ccc2[nH]1 (centres unmarked) [Example 78, 9-(5-Fluorobenzimidazole-2-yl)sulfinyl-4-methoxy-2,3-cycloheptenopyridine]",65.4,82.9,,,
"COCCOc1ccnc2c1CCCCC2[S+]([O-])c1nc2ccccc2[nH]1 (centres unmarked) [Example 96, 9-(Benzimidazole-2-yl)sulfinyl-4-(2-methoxyethoxy)-2,3-cycloheptenopyridine]",38.6,57.4,,,
"COc1c(C)cnc2c1CCCCC2[S+]([O-])c1nc2ccccc2[nH]1 (centres unmarked) [Example 109, 9-(Benzimidazole-2-yl)sulfinyl-4-methoxy-3-methyl-2,3-cycloheptenopyridine]",,77.6,,,
"COc1ccc2[nH]c([S+]([O-])Cc3ncc(C)c(OC)c3C)nc2c1 (centres unmarked) [Omeprazole, reference compound]",36.9,,,,
